How the values were obtained:
[1] = test system: HBV (HepG2.117 cell line, inducibly HBV producing); assay: Anti-HBV activity: intracellular HBV DNA by real-time PCR in HepG2.117 cells after 3 days of treatment; format: cell-based, hepatitis B virus; conditions: Hepatitis B virus, HepG2.117, 72 h, HepG2.117 cells, 3 days of treatment, intracellular HBV DNA by real-time PCR; mean value; read-out: EC50 (μM, mean value)
Procedure, shortened: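 Tet-off HepG2.117; HBV replication induced (no doxycycline); serial compound dilutions, 3 d; intracellular HBV DNA by real-time PCR, HBV-specific primers/probe.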

in vitro = format: cell-based; conditions: human, HepG2 or HepG2.117 cells, 3-days incubation (unmarked values), ATPlite; mean value
Procedure, shortened: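 Luminescent ATP quantitation served as the viability endpoint following a 3- or 4-day incubation with test compounds.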

`Cc1cc(-c2ccc(-n3c(NC(C)C)nc4c(c3=O)C[C@@H](C)N(C(=O)c3ccc(Cl)c(Cl)c3)C4)cc2)on1` [Compound C246, (6R)-7-(3,4-dichlorobenzoyl)-6-methyl-3-[4-(3-methyl-1,2-oxazol-5-yl)phenyl]-2-[(propan-2-yl)amino]-5,6,7,8-tetrahydropyrido[3,4-d]pyrimidin-4(3H)-one] gave an EC50 [1] of 0.19 µM and a CC50 at 3 days (in vitro) greater than 50 µM.

Work on `Cc1csc(-c2ccc(-n3c(NC(C)C)nc4c(c3=O)C[C@@H](C)N(C(=O)c3ccc(Cl)c(Cl)c3)C4)cc2)n1` [Compound C247, (6R)-7-(3,4-dichlorobenzoyl)-6-methyl-3-[4-(4-methyl-1,3-thiazol-2-yl)phenyl]-2-[(propan-2-yl)amino]-5,6,7,8-tetrahydropyrido[3,4-d]pyrimidin-4(3H)-one] yielded an EC50 [1] of 0.12 µM and a CC50 at 3 days (in vitro) greater than 50 µM.

Work on `Cc1[nH]cnc1-c1ccc(-n2c(NC(C)C)nc3c(c2=O)C[C@@H](C)N(C(=O)c2ccc(Cl)c(Cl)c2)C3)cc1` [Compound C248, (6R)-7-(3,4-dichlorobenzoyl)-6-methyl-3-[4-(5-methyl-1H-imidazol-4-yl)phenyl]-2-[(propan-2-yl)amino]-5,6,7,8-tetrahydropyrido[3,4-d]pyrimidin-4(3H)-one] yielded an EC50 [1] of 0.13 µM and a CC50 at 3 days (in vitro) of 31.1 µM.

With `CC(C)Nc1nc2c(c(=O)n1-c1ccc(-c3n[nH]c(Br)n3)cc1)C[C@@H](C)N(C(=O)c1ccc(Cl)c(Cl)c1)C2` [Compound C249, (6R)-3-[4-(5-bromo-1H-1,2,4-triazol-3-yl)phenyl]-7-(3,4-dichlorobenzoyl)-6-methyl-2-[(propan-2-yl)amino]-5,6,7,8-tetrahydropyrido[3,4-d]pyrimidin-4(3H)-one] the EC50 [1] was 0.49 µM and the CC50 at 3 days (in vitro) was greater than 50 µM.

`Cc1c[nH]c(-c2ccc(-n3c(NC(C)C)nc4c(c3=O)C[C@@H](C)N(C(=O)c3ccc(Cl)c(Cl)c3)C4)cc2)n1` [Compound C250, (6R)-7-(3,4-dichlorobenzoyl)-6-methyl-3-[4-(4-methyl-1H-imidazol-2-yl)phenyl]-2-[(propan-2-yl)amino]-5,6,7,8-tetrahydropyrido[3,4-d]pyrimidin-4(3H)-one] showed an EC50 [1] of 0.07 µM and a CC50 at 3 days (in vitro) of 8.9 µM.

Work on `CNC(=O)c1ccc(-n2c(NC34CC(C3)C4)nc3c(c2=O)C[C@@H](C)N(C(=O)c2ccc(Cl)c(Cl)c2)C3)cc1` [Compound C251, 4-[(6R)-2-[(bicyclo[1.1.1]pentan-1-yl)amino]-7-(3,4-dichlorobenzoyl)-6-methyl-4-oxo-5,6,7,8-tetrahydropyrido[3,4-d]pyrimidin-3(4H)-yl]-N-methylbenzamide] yielded an EC50 [1] of 0.25 µM and a CC50 at 3 days (in vitro) greater than 50 µM.

Compound `CNC(=O)c1ccc(-n2c(N3CCC[C@H]3C)nc3c(c2=O)C[C@@H](C)N(C(=O)c2ccc(Cl)c(Cl)c2)C3)cc1` [Compound C252, 4-[(6R)-7-(3,4-dichlorobenzoyl)-6-methyl-2-[(2R)-2-methylpyrrolidin-1-yl]-4-oxo-5,6,7,8-tetrahydropyrido[3,4-d]pyrimidin-3(4H)-yl]-N-methylbenzamide] has an EC50 [1] of 0.04 µM and a CC50 at 3 days (in vitro) of 25.9 µM.

`CNC(=O)c1ccc(-n2c(N[C@@H](C)c3ccccc3)nc3c(c2=O)C[C@@H](C)N(C(=O)c2ccc(Cl)c(Cl)c2)C3)cc1` [Compound C253, 4-[(6R)-7-(3,4-dichlorobenzoyl)-6-methyl-4-oxo-2-{[(1S)-1-phenylethyl]amino}-5,6,7,8-tetrahydropyrido[3,4-d]pyrimidin-3(4H)-yl]-N-methylbenzamide] showed an EC50 [1] of 0.1 µM and a CC50 at 3 days (in vitro) of 22.9 µM.

`CC(C)Nc1nc2c(c(=O)n1[C@H]1CC[C@H](C(=O)O)CC1)C[C@@H](C)N(C(=O)c1ccc(Cl)c(Cl)c1)C2` [Compound C254, trans-4-[(6R)-7-(3,4-dichlorobenzoyl)-6-methyl-4-oxo-2-[(propan-2-yl)amino]-5,6,7,8-tetrahydropyrido[3,4-d]pyrimidin-3(4H)-yl]cyclohexane-1-carboxylic acid] gave an EC50 [1] of 1.99 µM and a CC50 at 3 days (in vitro) greater than 50 µM.

For `CNC(=O)[C@H]1CC[C@H](n2c(NC(C)C)nc3c(c2=O)C[C@@H](C)N(C(=O)c2ccc(Cl)c(Cl)c2)C3)CC1` [Compound C255, trans-4-[(6R)-7-(3,4-dichlorobenzoyl)-6-methyl-4-oxo-2-[(propan-2-yl)amino]-5,6,7,8-tetrahydropyrido[3,4-d]pyrimidin-3(4H)-yl]-N-methylcyclohexane-1-carboxamide], the EC50 [1] was 0.09 µM and the CC50 at 3 days (in vitro) was greater than 50 µM.

Compound `CC[C@@H](C)Nc1nc2c(c(=O)n1-c1ccc(C(=O)NC)cc1)C[C@@H](C)N(C(=O)c1ccc(Cl)c(Cl)c1)C2` [Compound C258, 4-[(6R)-2-{[(2R)-butan-2-yl]amino}-7-(3,4-dichlorobenzoyl)-6-methyl-4-oxo-5,6,7,8-tetrahydropyrido[3,4-d]pyrimidin-3(4H)-yl]-N-methylbenzamide] has an EC50 [1] of 0.05 µM and a CC50 at 3 days (in vitro) greater than 50 µM.

For `CNC(=O)C12CC(n3c(NC(C)C)nc4c(c3=O)C[C@@H](C)N(C(=O)c3ccc(Cl)c(Cl)c3)C4)(C1)C2` [Compound C261, 3-[(6R)-7-(3,4-dichlorobenzoyl)-6-methyl-4-oxo-2-[(propan-2-yl)amino]-5,6,7,8-tetrahydropyrido[3,4-d]pyrimidin-3(4H)-yl]-N-methylbicyclo[1.1.1]pentane-1-carboxamide], the EC50 [1] was 0.34 µM and the CC50 at 3 days (in vitro) was greater than 50 µM.

With `CC(C)Nc1nc2c(c(=O)n1[C@H]1CC[C@@H](S(C)(=O)=O)CC1)C[C@@H](C)N(C(=O)c1ccc(Cl)c(Cl)c1)C2` [Compound C262, (6R)-7-(3,4-dichlorobenzoyl)-3-[cis-4-(methanesulfonyl)cyclohexyl]-6-methyl-2-[(propan-2-yl)amino]-5,6,7,8-tetrahydropyrido[3,4-d]pyrimidin-4(3H)-one] the EC50 [1] was 0.11 µM and the CC50 at 3 days (in vitro) was 22.5 µM.

Work on `CNc1noc2ccc(-n3c(NC(C)C)nc4c(c3=O)C[C@@H](C)N(C(=O)c3ccc(Cl)c(Cl)c3)C4)cc12` [Compound C263, (6R)-7-(3,4-dichlorobenzoyl)-6-methyl-3-[3-(methylamino)-1,2-benzoxazol-5-yl]-2-[(propan-2-yl)amino]-5,6,7,8-tetrahydropyrido[3,4-d]pyrimidin-4(3H)-one] yielded an EC50 [1] of 0.17 µM and a CC50 at 3 days (in vitro) greater than 50 µM.

`Cc1noc(C)c1-c1ccc(-n2c(NC(C)C)nc3c(c2=O)C[C@@H](C)N(C(=O)c2ccc(Cl)c(Cl)c2)C3)cn1` [Compound C264, (6R)-7-(3,4-dichlorobenzoyl)-3-[6-(3,5-dimethyl-1,2-oxazol-4-yl)pyridin-3-yl]-6-methyl-2-[(propan-2-yl)amino]-5,6,7,8-tetrahydropyrido[3,4-d]pyrimidin-4(3H)-one] gave an EC50 [1] of 0.26 µM and a CC50 at 3 days (in vitro) greater than 50 µM.

`CNC(=O)c1ccc(-n2c(NC(C)C)nc3c(c2=O)C[C@@H](C)N(C(=O)c2ccc(Cl)c(Cl)c2)C3)cn1` [Compound C265] showed an EC50 [1] of 0.18 µM and a CC50 at 3 days (in vitro) greater than 50 µM.

`CC(C)Nc1nc2c(c(=O)n1-c1ccc(C(=O)NC3(C(=O)O)CC3)cc1)C[C@@H](C)N(C(=O)c1ccc(Cl)c(Cl)c1)C2` [Compound C266, 1-{4-[(6R)-7-(3,4-dichlorobenzoyl)-6-methyl-4-oxo-2-[(propan-2-yl)amino]-5,6,7,8-tetrahydropyrido[3,4-d]pyrimidin-3(4H)-yl]benzamido}cyclopropane-1-carboxylic acid] gave an EC50 [1] of 13.4 µM and a CC50 at 3 days (in vitro) greater than 50 µM.

`COC(=O)c1ccn(-c2ccc(-n3c(NC(C)C)nc4c(c3=O)C[C@@H](C)N(C(=O)c3ccc(Cl)c(Cl)c3)C4)cc2)n1` [Compound C267, methyl 1-{4-[(6R)-7-(3,4-dichlorobenzoyl)-6-methyl-4-oxo-2-[(propan-2-yl)amino]-5,6,7,8-tetrahydropyrido[3,4-d]pyrimidin-3(4H)-yl]phenyl}-1H-pyrazole-3-carboxylate] showed an EC50 [1] of 0.21 µM and a CC50 at 3 days (in vitro) greater than 50 µM.

With `CNC(=O)c1ccc(-n2c(NC(C)(C)C)nc3c(c2=O)C[C@@H](C)N(C(=O)c2ccc(Cl)c(Cl)c2)C3)cc1` [Compound C269, 4-[(6R)-2-(tert-butylamino)-7-(3,4-dichlorobenzoyl)-6-methyl-4-oxo-5,6,7,8-tetrahydropyrido[3,4-d]pyrimidin-3(4H)-yl]-N-methylbenzamide] the EC50 [1] was 0.05 µM and the CC50 at 3 days (in vitro) was greater than 50 µM.

For `CNC(=O)c1ccc(-n2c(N3CCC[C@@H]3C)nc3c(c2=O)C[C@@H](C)N(C(=O)c2ccc(Cl)c(Cl)c2)C3)cc1` [Compound C271, 4-[(6R)-7-(3,4-dichlorobenzoyl)-6-methyl-2-[(2S)-2-methylpyrrolidin-1-yl]-4-oxo-5,6,7,8-tetrahydropyrido[3,4-d]pyrimidin-3(4H)-yl]-N-methylbenzamide], the EC50 [1] was 0.27 µM and the CC50 at 3 days (in vitro) was 24.9 µM.

`CNC(=O)c1ccc(-n2c(N[C@@H](C)CO)nc3c(c2=O)C[C@@H](C)N(C(=O)c2ccc(Cl)c(Cl)c2)C3)cc1` [Compound C272, 4-[(6R)-7-(3,4-dichlorobenzoyl)-2-{[(2S)-1-hydroxypropan-2-yl]amino}-6-methyl-4-oxo-5,6,7,8-tetrahydropyrido[3,4-d]pyrimidin-3(4H)-yl]-N-methylbenzamide] showed an EC50 [1] of 2.39 µM and a CC50 at 3 days (in vitro) greater than 50 µM.

`CCOC(=O)[C@H]1CC[C@@H](n2c(NC(C)C)nc3c(c2=O)C[C@@H](C)N(C(=O)c2ccc(Cl)c(Cl)c2)C3)CC1` [Compound C273, ethyl cis-4-[(6R)-7-(3,4-dichlorobenzoyl)-6-methyl-4-oxo-2-[(propan-2-yl)amino]-5,6,7,8-tetrahydropyrido[3,4-d]pyrimidin-3(4H)-yl]cyclohexane-1-carboxylate] gave an EC50 [1] of 0.31 µM and a CC50 at 3 days (in vitro) of 33.4 µM.

Work on `CNC(=O)c1ccc(-n2c(NC(C)C)nc3c(c2=O)C[C@@H](C)N(C(=O)c2ccc(Cl)c(Cl)c2)C3)cc1F` [Compound C274, 4-[(6R)-7-(3,4-dichlorobenzoyl)-6-methyl-4-oxo-2-[(propan-2-yl)amino]-5,6,7,8-tetrahydropyrido[3,4-d]pyrimidin-3(4H)-yl]-2-fluoro-N-methylbenzamide] yielded an EC50 [1] of 0.09 µM and a CC50 at 3 days (in vitro) greater than 50 µM.

Reference: patent US20230091047A1 (priority 2019, published 2023)
